Experimental data reported in patent publication US20230099344A1, “COMPOUNDS AND METHODS FOR THE TARGETED DEGRADATION OF IRAK-4” (Arvinas Operations, Inc., priority 2021, published 2023).

Assays:
Format in all cases: cell-based
IL6 [1] = assay: R848 stimulated IL6 inhibition assay in PBMC; settings: human PBMCs, R848 stimulation, compound overnight, IL6 by MSD after 24 hrs; for Dmax: Homo sapiens, 24 h, read-out: R848 stim IL6 inhibition Dmax; for IC50: read-out: R848 stim IL6 inhibition IC50
Method: (§1) IL-1β, LPS, or R848 Stimulated IL6 Inhibition and IL-1β Stimulated IL8 Inhibition Assay
(§2) Human PBMC cells were seeded at 2.0×10^6 cells/mL, treated with compound overnight, and dosed with the EC50 concentration of each stimulant (either IL-1B. LPS, or R848) was determined for each donor. After 24 hrs, media was collected and analyzed by MSD for IL6 and/or IL8 levels.

IRAK-4 = biological target: T1, IRAK-4 (Homo sapiens, UniProt Q9NWZ3); assay: IRAK-4 ELISA, PBMC degradation; parameters: endogenous in cells; host or cells: PBMC; settings: treated overnight
T1 sequence (Q9NWZ3 1-460): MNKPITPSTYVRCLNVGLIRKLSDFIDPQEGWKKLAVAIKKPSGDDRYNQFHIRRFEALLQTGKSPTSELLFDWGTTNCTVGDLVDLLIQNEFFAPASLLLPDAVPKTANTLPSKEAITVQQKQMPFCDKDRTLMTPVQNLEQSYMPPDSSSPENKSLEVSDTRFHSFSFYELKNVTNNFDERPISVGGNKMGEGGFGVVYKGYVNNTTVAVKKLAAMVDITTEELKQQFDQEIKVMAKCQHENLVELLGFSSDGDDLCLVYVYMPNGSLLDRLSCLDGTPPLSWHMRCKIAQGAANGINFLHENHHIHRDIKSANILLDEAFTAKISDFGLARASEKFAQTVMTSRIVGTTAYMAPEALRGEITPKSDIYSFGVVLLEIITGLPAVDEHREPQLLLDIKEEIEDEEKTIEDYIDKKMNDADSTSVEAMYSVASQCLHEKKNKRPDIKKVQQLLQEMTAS
How it was run: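 Steps: seed cells (OCI-Ly10 1×10^6/ml; PBMC 2×10^6/ml); add compound the same day; incubate overnight; lyse; quantify IRAK-4 by matched-pair ELISA.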

IL6 [2] = assay: LPS stimulated IL6 inhibition assay in PBMC; settings: human PBMCs, LPS stimulation, compound overnight, IL6 by MSD after 24 hrs; for Dmax: read-out: LPS Stim IL6 inhibition Dmax; for IC50: read-out: LPS stim IL6 inhibition IC50
Method: as §1, §2

| Structure (SMILES) | IC50 (IL6 [1]; PBMC) | DC50 (IRAK-4) | Dmax (IRAK-4) | PBMC DC90 (IRAK-4) | IC50 (IL6 [2]; Homo sapiens, PBMC, 24 h) | IC50 (IL6 [1]) | IC50 (IL6 [2]) | Dmax (IL6 [1]; PBMC) | Dmax (IL6 [2]; Homo sapiens, PBMC, 24 h) | R848 stim IL6 inhibition Dmax (IL6 [1]) | LPS Stim IL6 inhibition Dmax (IL6 [2]) |
| --- | --- | --- | --- | --- | --- | --- | --- | --- | --- | --- | --- |
| O=C1CCC(N2C(=O)c3ccc(N4CCC(O)(CN5CCC(n6cc7cc(NC(=O)c8cnn9cccnc89)c(OCC8CC8)cc7n6)CC5)CC4)cc3C2=O)C(=O)N1 (stereo not shown) [Example 257] | 10 to 50 nM | 1 to 5 nM | ≥ 90% | A (A represents a DC90 value <10.0 nM) | 10 to 50 nM | – | – | ≥ 90% | 70 to 80% | – | – |
| O=C1CCC(N2C(=O)c3ccc(N4CC[C@H](O[C@H]5CC[C@@H](n6cc7cc(NC(=O)c8cnn9cccnc89)c(OCC8CC8)cc7n6)CC5)C4)cc3C2=O)C(=O)N1 (stereo partly shown) [Example 428] | – | 1 to 5 nM | ≥ 90% | B (B represents a DC90 value ≥10.0 nM and <25.0 nM) | – | 10 to 50 nM | 10 to 50 nM | – | – | A (A represents a Ymax value ≥90) | D (D represents a Ymax value <70) |
| O=C1CCC(N2C(=O)c3ccc(N4CC(F)(CN5CCC(n6cc7cc(NC(=O)c8cnn9cccnc89)c(N8CCC(N9CCC9)CC8)cc7n6)CC5)C4)cc3C2=O)C(=O)N1 (stereo not shown) [Example 243] | 10 to 50 nM | 5 to 10 nM | 80 to 90% | D (D represents a DC90 value ≥50 nM) | 10 to 50 nM | – | – | ≥ 90% | < 70% | – | – |
| O=C1CC[C@H](N2C(=O)c3ccc(N4CC(F)(CN5CCC(n6cc7cc(NC(=O)c8cnn9cccnc89)c(OCC8CC8)cc7n6)CC5)C4)cc3C2=O)C(=O)N1 [Example 254] | 10 to 50 nM | 1 to 5 nM | ≥ 90% | A (A represents a DC90 value <10.0 nM) | 50 to 100 nM | – | – | ≥ 90% | < 70% | – | – |
| O=C1CCC(N2C(=O)c3ccc(N4CCC(CN5CCC(N6Cc7cc(NC(=O)c8cnn9cccnc89)c(N8CCN(C9CC(F)(F)C9)CC8)cc7C6=O)CC5)CC4)cc3C2=O)C(=O)N1 (stereo not shown) [Example 53] | 10 to 50 nM | 1 to 5 nM | ≥ 90% | B (B represents a DC90 value ≥10.0 nM and <25.0 nM) | 50 to 100 nM | – | – | 70 to 80% | < 70% | – | – |
| O=C1CCC(N2C(=O)c3ccc(N4CCC5(CC4)CC(CN4CCC(n6cc7cc(NC(=O)c8cnn9cccnc89)c(OCC8CC8)cc7n6)CC4)C5)cc3C2=O)C(=O)N1 (stereo not shown) [Example 261] | 50 to 100 nM | 1 to 5 nM | ≥ 90% | A (A represents a DC90 value <10.0 nM) | 10 to 50 nM | – | – | 80 to 90% | 80 to 90% | – | – |
| CN(C1CN(c2ccc3c(c2)CN(C2CCC(=O)NC2=O)C3=O)C1)[C@H]1CC[C@H](N2Cc3cc(NC(=O)c4cnn5cccnc45)c(N4CCC(N5CCC5)CC4)cc3C2=O)CC1 (stereo partly shown) [Example 370] | < 10 nM | 1 to 5 nM | ≥ 90% | A (A represents a DC90 value <10.0 nM) | < 10 nM | – | – | ≥ 90% | ≥ 90% | – | – |
| CC(C)Oc1cc2c(cc1NC(=O)c1cnn3cccnc13)CN(C1CCN(CC3CCN(c4ccc5c(c4)C(=O)N(C4CCC(=O)NC4=O)C5)CC3)CC1)C2=O (stereo not shown) [Example 105] | 50 to 100 nM | ≥ 10 nM | – | D (D represents a DC90 value ≥50 nM) | ≥ 100 nM | – | – | 80 to 90% | 70 to 80% | – | – |
| CC(C)Oc1cc2c(cc1NC(=O)c1cnn3cccnc13)CN([C@H]1CC[C@H](CN3CCN(c4ccc5c(c4)C(=O)N(C4CCC(=O)NC4=O)C5=O)CC3)CC1)C2=O (stereo partly shown) [Example 431] | 10 to 50 nM | 1 to 5 nM | ≥ 90% | A (A represents a DC90 value <10.0 nM) | 10 to 50 nM | – | – | ≥ 90% | 70 to 80% | – | – |
| O=C1CCC(N2Cc3c(ccc(N4CC(F)(CN5CCC(n6cc7cc(NC(=O)c8cnn9cccnc89)c(OCC(F)F)cc7n6)CC5)C4)c3F)C2=O)C(=O)N1 (stereo not shown) [Example 251] | 10 to 50 nM | 1 to 5 nM | 80 to 90% | A (A represents a DC90 value <10.0 nM) | 50 to 100 nM | – | – | 80 to 90% | < 70% | – | – |
| CN(C1CN(c2ccc3c(c2F)CN(C2CCC(=O)NC2=O)C3=O)C1)[C@H]1CC[C@H](n2cc3cc(NC(=O)c4cnn5cccnc45)c(OCC4CC4)cc3n2)CC1 (stereo partly shown) [Example 361] | < 10 nM | < 1 nM | ≥ 90% | A (A represents a DC90 value <10.0 nM) | < 10 nM | – | – | ≥ 90% | 80 to 90% | – | – |
| CCN(C1CN(c2ccc(C(=O)NC3CCC(=O)NC3=O)c(F)c2)C1)[C@H]1CC[C@H](n2cc3cc(NC(=O)c4cnn5cccnc45)c(OCC4CC4)cc3n2)CC1 (stereo partly shown) [Example 369] | 10 to 50 nM | 1 to 5 nM | ≥ 90% | A (A represents a DC90 value <10.0 nM) | 10 to 50 nM | – | – | ≥ 90% | < 70% | – | – |
| O=C1CCC(N2Cc3c(ccc(N4CCC(CN5CCC(N6Cc7cc(NC(=O)c8cnn9cccnc89)c(N8CCN(C9CC(F)(F)C9)CC8)cc7C6=O)CC5)CC4)c3F)C2=O)C(=O)N1 (stereo not shown) [Example 55] | 10 to 50 nM | < 1 nM | ≥ 90% | A (A represents a DC90 value <10.0 nM) | < 10 nM | – | – | ≥ 90% | < 70% | – | – |

Second part, led by results:

| IC50 (IL6 [1]; PBMC) | DC50 (IRAK-4) | Dmax (IRAK-4) | PBMC DC90 (IRAK-4) | IC50 (IL6 [2]; Homo sapiens, PBMC, 24 h) | IC50 (IL6 [1]) | IC50 (IL6 [2]) | Structure (SMILES) | Dmax (IL6 [1]; PBMC) | Dmax (IL6 [2]; Homo sapiens, PBMC, 24 h) | R848 stim IL6 inhibition Dmax (IL6 [1]) | LPS Stim IL6 inhibition Dmax (IL6 [2]) |
| --- | --- | --- | --- | --- | --- | --- | --- | --- | --- | --- | --- |
| < 10 nM | < 1 nM | < 70% | A (A represents a DC90 value <10.0 nM) | < 10 nM | – | – | CN(C1CCN(c2ccc3c(c2)C(=O)N(C2CCC(=O)NC2=O)C3=O)CC1)[C@H]1CC[C@H](n2cc3cc(NC(=O)c4cnn5cccnc45)c(OCC(F)F)cc3n2)CC1 (stereo partly shown) [Example 358] | ≥ 90% | 70 to 80% | – | – |
| 10 to 50 nM | < 1 nM | ≥ 90% | A (A represents a DC90 value <10.0 nM) | 50 to 100 nM | – | – | O=C1CCC(N2Cc3c(ccc(N4CCC(CN5CCC(N6Cc7cc(NC(=O)c8cnn9cccnc89)c(N8CCN(CC(F)F)CC8)cc7C6=O)CC5)CC4)c3F)C2=O)C(=O)N1 (stereo not shown) [Example 51] | ≥ 90% | < 70% | – | – |
| 10 to 50 nM | < 1 nM | ≥ 90% | A (A represents a DC90 value <10.0 nM) | 10 to 50 nM | – | – | O=C1CCC(N2Cc3cc(N4CCC(CN5CCC(N6Cc7cc(NC(=O)c8cnn9cccnc89)c(N8CCN(CC(F)F)CC8)cc7C6=O)CC5)CC4)ccc3C2=O)C(=O)N1 (stereo not shown) [Example 50] | ≥ 90% | < 70% | – | – |
| 10 to 50 nM | < 1 nM | ≥ 90% | A (A represents a DC90 value <10.0 nM) | 10 to 50 nM | – | – | CC(C)Oc1cc2c(cc1NC(=O)c1cnn3cccnc13)CN(C1CCN(CC3CCN(c4ccc5c(c4)C(=O)N([C@H]4CCC(=O)NC4=O)C5=O)CC3)CC1)C2=O [Example 48] | ≥ 90% | 70 to 80% | – | – |
| 10 to 50 nM | < 1 nM | 80 to 90% | A (A represents a DC90 value <10.0 nM) | 50 to 100 nM | – | – | COc1cc(N2CC(F)(CN3CCC(n4cc5cc(NC(=O)c6cnn7cccnc67)c(OCC6CC6)cc5n4)CC3)C2)cc2c1C(=O)N(C1CCC(=O)NC1=O)C2=O (stereo not shown) [Example 240] | ≥ 90% | 80 to 90% | – | – |
| < 10 nM | < 1 nM | ≥ 90% | A (A represents a DC90 value <10.0 nM) | < 10 nM | – | – | O=C1CCC(N2Cc3c(ccc(N4CCC(CN5CCC(n6cc7cc(NC(=O)c8cnn9cccnc89)c(N8CCN(CC(F)F)CC8)cc7n6)CC5)CC4)c3F)C2=O)C(=O)N1 (stereo not shown) [Example 158] | ≥ 90% | 80 to 90% | – | – |
| < 10 nM | < 1 nM | 80 to 90% | A (A represents a DC90 value <10.0 nM) | 10 to 50 nM | – | – | CC(C)Oc1cc2c(cc1NC(=O)c1cnn3cccnc13)CN(C1CCN(CC3CCN(c4ccc5c(c4F)CN(C4CCC(=O)NC4=O)C5=O)CC3)CC1)C2=O (stereo not shown) [Example 41] | ≥ 90% | 70 to 80% | – | – |
